Test results taken from patent US10597388B2, “Pyridazinone herbicides” (FMC CORPORATION, priority 2014, dated 2020).

Experiments:
Format in all cases: in vivo
[1] = tested on: barnyardgrass (Echinochloa crus-galli); assay: Test A greenhouse herbicide test, pre- and postemergence
Outline: (§1)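 Visual injury ratings, 0 (no effect) to 100 (complete control), versus untreated plants after roughly 10 d in a greenhouse. Compounds, formulated in a surfactant-containing non-phytotoxic solvent, were sprayed on loam–sand soil after sowing (pre) or on one- to two-leaf plants 2–10 cm tall (post).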

[2] = tested on: foxtail, giant (giant foxtail, Setaria faberii); assay: as above
Outline: as §1

[3] = tested on: kochia (Kochia scoparia); assay: as above
Outline: as §1

[4] = tested on: pigweed (Amaranthus retroflexus); assay: as above
Outline: as §1

[5] = tested on: ragweed (common ragweed, Ambrosia elatior); assay: as above
Outline: as §1

[6] = tested on: ryegrass, Italian (Italian ryegrass, Lolium multiflorum); assay: as above
Outline: as §1

[7] = tested on: wheat (Triticum aestivum); assay: as above; conditions: Postemergence; for Wheat plant response rating: 0 to 100 scale, 0 is no effect, 100 is complete control; for Plant response rating, Wheat: 125 g ai/ha, 0 to 100 scale where 0 is no effect and 100 is complete control
Outline: as §1

[8] = tested on: blackgrass (Alopecurus myosuroides); assay: Test A greenhouse herbicide test, postemergence; conditions: for Blackgrass plant response rating: 0 to 100 scale, 0 is no effect, 100 is complete control; for Plant response rating, Blackgrass: 125 g ai/ha, 0 to 100 scale where 0 is no effect and 100 is complete control
Outline: (§2)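 Scores are visual injury ratings from 0 (no effect) to 100 (complete control) versus untreated plants, taken roughly 10 d after treatment in the greenhouse. Treatment was postemergence, on one- to two-leaf plants 2–10 cm high growing in a loam soil/sand mix.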

[9] = tested on: galium (catchweed bedstraw, Galium aparine); assay: Test A greenhouse herbicide test, postemergence; conditions: for Galium plant response rating: 0 to 100 scale, 0 is no effect, 100 is complete control; for Plant response rating, Galium: 125 g ai/ha, 0 to 100 scale where 0 is no effect and 100 is complete control
Outline: as §2

[10] = tested on: corn (Zea mays); assay: Test C greenhouse herbicide test, pre- and postemergence
Outline: (§3)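 Visual 0–100 injury score (100 = complete control) taken against untreated controls after 13–15 d in greenhouse. Test chemicals, formulated in solvent plus surfactant, applied preemergence to seeds in loam–sand soil or postemergence to 1- to 4-leaf plants (2–18 cm).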

[11] = tested on: ryegrass, Italian (Italian ryegrass, Lolium multiflorum); assay: as above
Outline: as §3

[12] = Postemergence, 1000 g ai/ha, 0 to 100 scale, 0 is no effect, 100 is complete control
[13] = Preemergence, 1000 g ai/ha, 0 to 100 scale, 0 no effect, 100 complete control
[14] = Postemergence, 31 g ai/ha, 0 to 100 scale (0 no effect, 100 complete control)
[15] = Postemergence, 125 g ai/ha, scale 0 to 100, 0 is no effect, 100 is complete control
[16] = Postemergence, 250 g ai/ha, scale 0 to 100, 0 no effect, 100 complete control, 13 to 15 d
[17] = Preemergence, 31 g ai/ha, scale 0 to 100, 0 is no effect, 100 is complete control
[18] = Preemergence, 62 g ai/ha, scale 0 to 100, 0 is no effect, 100 is complete control
[19] = Preemergence, 125 g ai/ha, scale 0 to 100, 0 is no effect, 100 is complete control
[20] = Preemergence, 250 g ai/ha, scale 0 to 100 (0 no effect, 100 complete control)
[21] = postemergence, 62 g ai/ha, scale 0 to 100, 0 no effect, 100 complete control
[22] = Postemergence, 125 g ai/ha, 0 to 100 scale where 0 is no effect and 100 is complete control
[23] = Postemergence, 500 g ai/ha, 0 to 100 scale, 0 is no effect, 100 is complete control
[24] = Preemergence, 125 g ai/ha, 0 to 100 scale where 0 is no effect and 100 is complete control
[25] = Preemergence, 500 g ai/ha, 0 to 100 scale, 0 no effect, 100 complete control
[26] = Preemergence, 500 g ai/ha, 0 to 100 scale where 0 is no effect and 100 is complete control

Structure (SMILES): Cc1ccc2ccc(C)c(-c3c(O)c(C)nn(C)c3=O)c2c1 [Compound 60]
- Barnyardgrass plant response rating [1, 12]: 90
- Plant response rating, Barnyardgrass [1, 13]: 80
- Foxtail, Giant plant response rating [2, 12]: 90
- Plant response rating, Foxtail, Giant [2, 13]: 90
- Kochia plant response rating [3, 12]: 100
- Plant response rating, Kochia [3, 13]: 80
- Pigweed plant response rating [4, 12]: 100
- Plant response rating, Pigweed [4, 13]: 100
- Ragweed plant response rating [5, 12]: 100
- Plant response rating, Ragweed [5, 13]: 100
- Ryegrass, Italian plant response rating [6, 12]: 100
- Plant response rating, Ryegrass, Italian [6, 13]: 100
- Wheat plant response rating ([7]; 1000 g ai/ha): 70
- Blackgrass plant response rating ([8]; 1000 g ai/ha): 90
- Galium plant response rating ([9]; 1000 g ai/ha): 100
- Corn plant response rating [10, 14]: 10
- Plant response rating, Corn [10, 15]: 30
- Plant response rating, Corn [10, 16]: 35
- Plant response rating, Corn [10, 17]: 0
- Plant response rating, Corn [10, 18]: 10
- Plant response rating, Corn [10, 19]: 30
- Corn plant response rating [10, 20]: 45
- Corn plant response rating [10, 21]: 25
- Ryegrass, Italian plant response rating [11, 14]: 90
- Plant response rating, Ryegrass, Italian [11, 15]: 95
- Plant response rating, Ryegrass, Italian [11, 16]: 95
- Plant response rating, Ryegrass, Italian [11, 17]: 90
- Plant response rating, Ryegrass, Italian [11, 18]: 95
- Plant response rating, Ryegrass, Italian [11, 19]: 95
- Ryegrass, Italian plant response rating [11, 20]: 95
- Ryegrass, Italian plant response rating [11, 21]: 90

Structure (SMILES): Cc1nn(C)c(=O)c(-c2c(C)sc3ccccc23)c1O [Compound 65]
- Plant response rating, Barnyardgrass [1, 22]: 20
- Barnyardgrass plant response rating [1, 23]: 90
- Barnyardgrass plant response rating [1, 24]: 60
- Plant response rating, Barnyardgrass [1, 25]: 90
- Plant response rating, Foxtail, Giant [2, 22]: 20
- Foxtail, Giant plant response rating [2, 23]: 90
- Foxtail, Giant plant response rating [2, 24]: 60
- Plant response rating, Foxtail, Giant [2, 25]: 90
- Plant response rating, Kochia [3, 22]: 90
- Kochia plant response rating [3, 23]: 90
- Kochia plant response rating [3, 24]: 60
- Plant response rating, Kochia [3, 25]: 90
- Plant response rating, Pigweed [4, 22]: 80
- Pigweed plant response rating [4, 23]: 90
- Pigweed plant response rating [4, 24]: 100
- Plant response rating, Pigweed [4, 25]: 100
- Plant response rating, Ragweed [5, 22]: 50
- Ragweed plant response rating [5, 23]: 90
- Ragweed plant response rating [5, 24]: 70
- Plant response rating, Ragweed [5, 25]: 80
- Plant response rating, Ryegrass, Italian [6, 22]: 90
- Ryegrass, Italian plant response rating [6, 23]: 100
- Ryegrass, Italian plant response rating [6, 24]: 90
- Plant response rating, Ryegrass, Italian [6, 25]: 100
- Plant response rating, Wheat [7]: 0
- Wheat plant response rating ([7]; 500 g ai/ha): 0
- Plant response rating, Blackgrass [8]: 20
- Blackgrass plant response rating ([8]; 500 g ai/ha): 70
- Plant response rating, Galium [9]: 90
- Galium plant response rating ([9]; 500 g ai/ha): 100
- Corn plant response rating [10, 14]: 5
- Plant response rating, Corn [10, 15]: 5
- Plant response rating, Corn [10, 16]: 5
- Corn plant response rating [10, 21]: 5
- Ryegrass, Italian plant response rating [11, 14]: 65
- Plant response rating, Ryegrass, Italian [11, 15]: 85
- Plant response rating, Ryegrass, Italian [11, 16]: 85
- Ryegrass, Italian plant response rating [11, 21]: 80

Structure (SMILES): Cc1cc(C)c2sc(C)c(-c3c(OC(=O)OC(C)C)c(C)nn(C)c3=O)c2c1 [Compound 67]
- Plant response rating, Barnyardgrass [1, 22]: 20
- Barnyardgrass plant response rating [1, 23]: 70
- Barnyardgrass plant response rating [1, 24]: 30
- Plant response rating, Barnyardgrass [1, 25]: 90
- Plant response rating, Foxtail, Giant [2, 22]: 80
- Foxtail, Giant plant response rating [2, 23]: 90
- Foxtail, Giant plant response rating [2, 24]: 80
- Plant response rating, Foxtail, Giant [2, 25]: 100
- Plant response rating, Kochia [3, 22]: 20
- Kochia plant response rating [3, 23]: 30
- Kochia plant response rating [3, 24]: 20
- Plant response rating, Kochia [3, 25]: 20
- Plant response rating, Pigweed [4, 22]: 20
- Pigweed plant response rating [4, 23]: 20
- Pigweed plant response rating [4, 24]: 90
- Plant response rating, Pigweed [4, 25]: 100
- Plant response rating, Ragweed [5, 22]: 50
- Ragweed plant response rating [5, 23]: 70
- Ragweed plant response rating [5, 24]: 80
- Plant response rating, Ragweed [5, 25]: 80
- Plant response rating, Ryegrass, Italian [6, 22]: 70
- Ryegrass, Italian plant response rating [6, 23]: 90
- Ryegrass, Italian plant response rating [6, 24]: 90
- Plant response rating, Ryegrass, Italian [6, 25]: 100
- Plant response rating, Wheat [7]: 0
- Wheat plant response rating ([7]; 500 g ai/ha): 0
- Plant response rating, Blackgrass [8]: 70
- Blackgrass plant response rating ([8]; 500 g ai/ha): 80
- Plant response rating, Galium [9]: 80
- Galium plant response rating ([9]; 500 g ai/ha): 90
- Corn plant response rating [10, 14]: 5
- Plant response rating, Corn [10, 15]: 10
- Plant response rating, Corn [10, 16]: 20
- Plant response rating, Corn [10, 17]: 0
- Plant response rating, Corn [10, 18]: 0
- Plant response rating, Corn [10, 19]: 0
- Corn plant response rating [10, 20]: 0
- Corn plant response rating [10, 21]: 5
- Ryegrass, Italian plant response rating [11, 14]: 80
- Plant response rating, Ryegrass, Italian [11, 15]: 85
- Plant response rating, Ryegrass, Italian [11, 16]: 85
- Plant response rating, Ryegrass, Italian [11, 17]: 30
- Plant response rating, Ryegrass, Italian [11, 18]: 40
- Plant response rating, Ryegrass, Italian [11, 19]: 85
- Ryegrass, Italian plant response rating [11, 20]: 90
- Ryegrass, Italian plant response rating [11, 21]: 80

Structure (SMILES): CCOC(=O)Oc1c(C)nn(C)c(=O)c1-c1c(C)ccc2ccccc12 [Compound 73]
- Plant response rating, Barnyardgrass [1, 22]: 40
- Barnyardgrass plant response rating [1, 23]: 90
- Barnyardgrass plant response rating [1, 24]: 40
- Plant response rating, Barnyardgrass [1, 25]: 100
- Plant response rating, Foxtail, Giant [2, 22]: 90
- Foxtail, Giant plant response rating [2, 23]: 100
- Foxtail, Giant plant response rating [2, 24]: 90
- Plant response rating, Foxtail, Giant [2, 26]: 100
- Plant response rating, Kochia [3, 22]: 90
- Kochia plant response rating [3, 23]: 100
- Kochia plant response rating [3, 24]: 50
- Plant response rating, Kochia [3, 26]: 100
- Plant response rating, Pigweed [4, 22]: 100
- Pigweed plant response rating [4, 23]: 100
- Pigweed plant response rating [4, 24]: 100
- Plant response rating, Pigweed [4, 26]: 100
- Plant response rating, Ragweed [5, 22]: 90
- Ragweed plant response rating [5, 23]: 100
- Ragweed plant response rating [5, 24]: 90
- Plant response rating, Ragweed [5, 26]: 90
- Plant response rating, Ryegrass, Italian [6, 22]: 100
- Ryegrass, Italian plant response rating [6, 23]: 100
- Ryegrass, Italian plant response rating [6, 24]: 100
- Plant response rating, Ryegrass, Italian [6, 26]: 100
- Plant response rating, Wheat [7]: 40
- Wheat plant response rating ([7]; 500 g ai/ha): 90
- Plant response rating, Blackgrass [8]: 90
- Blackgrass plant response rating ([8]; 500 g ai/ha): 90
- Plant response rating, Galium [9]: 100
- Galium plant response rating ([9]; 500 g ai/ha): 100
- Corn plant response rating [10, 14]: 5
- Plant response rating, Corn [10, 15]: 20
- Plant response rating, Corn [10, 16]: 60
- Plant response rating, Corn [10, 17]: 0
- Plant response rating, Corn [10, 18]: 0
- Plant response rating, Corn [10, 19]: 5
- Corn plant response rating [10, 20]: 25
- Corn plant response rating [10, 21]: 20
- Ryegrass, Italian plant response rating [11, 14]: 85
- Plant response rating, Ryegrass, Italian [11, 15]: 90
- Plant response rating, Ryegrass, Italian [11, 16]: 90
- Plant response rating, Ryegrass, Italian [11, 17]: 75
- Plant response rating, Ryegrass, Italian [11, 18]: 90
- Plant response rating, Ryegrass, Italian [11, 19]: 90
- Ryegrass, Italian plant response rating [11, 20]: 90
- Ryegrass, Italian plant response rating [11, 21]: 90
